Reference: patent US20190282673A1, “STAPHTAME ACTIVITY ON BIOFILMS” (priority 2016, published 2019)
Like-named read-outs stand apart in the source and are kept apart here.

Columns and labels:
[1] = test system: S. epidermidis strain B9470; experiment: Generation and confirmation of antibiotic persisters (CFU over time); assay type: cell-based, Staphylococcus epidermidis; settings: for CFU/mL, generation of persisters: Vancomycin 50X, Daptomycin 10X MIC; for CFU/mL, confirmation of persisters (regrown, re-exposed): head prints Vancomycin 100X, Daptomycin 50×
Experimental: (§1) Persisters of S. aureus BK18 and B9377 and S. epidermidis strain B9470 were generated as per protocol described by Lechner, et al (Staphylococcus aureus persisters tolerant to bactericidal antibiotics. Lechner, et al. (2012) J Mol Microbiol Biotechnol; 22(4):235-44). Briefly, colonies were suspended in LB broth and allowed to grow at 37° C., 200 rpm for ˜2 hours. The cultures were pelleted, resuspended in MHB and OD600 was adjusted to 0.5 to 1.0 OD (˜2 to 5×10^8 CFU/mL). […] The test tubes were incubated at 37° C., 200 rpm, and 250 μL was sampled out at 4, 8, and 24 hr time points. This aliquot was pelleted, washed in saline and resuspended in equal volume of saline, diluted and plated on LB agar. Rapid decrease in CFUs, followed by rather stable values for up to 24 hrs, indicated the presence of Daptomycin/Vancomycin tolerant persisters.
(§2) After sampling for P128 and antibiotic activity, the rest of the sample was pelleted, washed in saline and resuspended into fresh media (LB). Allowed to grow at 37° C., 200 rpm until it reaches 1 OD and then the same steps followed as done for generation of persisters. A biphasic growth curve similar to that obtained during generation of persisters would indicate the tolerance to be phenotypic and not genotypic.

[2] = test system: S. aureus strains BK18 and B9377; experiment: as above; assay type: cell-based, Staphylococcus aureus; settings: for CFU/mL, generation of persisters / CFU/mL, confirmation of persisters (regrown, re-exposed): Vancomycin 100X; for CFU/mL, generation of persisters: Daptomycin 50X MIC; for CFU/mL, confirmation of persisters (regrown, re-exposed): Daptomycin 50×; for Drop in CFU at the end of 4 h treatment: generation of persisters
Experimental: as §1, §2

S. epidermidis = experiment: MIC and checkerboard synergy (broth microdilution) on planktonic cells; assay type: cell-based, Staphylococcus epidermidis; settings: Staphylococcus epidermidis
Experimental: Bacterial cultures at a final cell number of 5×10^5 CFU/mL was added to wells of 96-well microtiter plates (precoated with 0.5% BSA), containing two-fold dilutions of P128 and the second drug in cation adjusted Mueller Hinton Broth (CAMHB). The plates were incubated at 37° C. for 24 h and the individual MICs and the combination MICs were read. The fractional inhibitory concentration index (FICI) was determined using the following equation: FICI=(MIC of drug A in the combination/MIC of drug A alone)+(MIC of drug B in the combination/MIC of drug B alone). The combination was considered to be synergistic when the FICI was ≤0.5; additive when FICI was 0.5-1.0; indifferent when FICI was 1-4 and antagonistic when FICI≥4.
S. epidermidis culture at a final cell number of 5×10^5 CFU/mL was added to wells of 96-well microtiter plates (precoated with 0.5% BSA), containing two-fold dilutions of P128 and either Daptomycin or Oxacillin in cation adjusted Mueller Hinton Broth (CAMHB). CAMHB was supplemented with 50 µg/mL Ca^++ for daptomycin assay. The plates were incubated at 37° C. for 24 h and the individual MICs and the combination MICs were read. The fractional inhibitory concentration index (FICI) was determined using the following equation: FICI=(MIC of drug A in the combination/MIC of drug A alone)+(MIC of drug B in the combination/MIC of drug B alone). The combination was considered to be synergistic when the FICI was ≤0.5; additive when FICI was between 0.5-1.0; indifferent when FICI was between 1-4 and antagonistic when FICI was ≥4. The experiments were performed in triplicate and repeated twice.

[3] = test system: S. epidermidis B9470 biofilms on catheters; experiment: Preformed biofilms on catheters, safranin staining and SEM; assay type: cell-based, Staphylococcus epidermidis; settings: 18 hrs; P128 8 μg/mL (1×MIC); vancomycin 30 μg/mL (30×MIC)
Experimental: In order to simulate the in vivo conditions for biofilm formation in device associated infections, S. epidermidis B9470 was allowed to form biofilms on the surface of catheters. An overnight-grown culture was diluted 1:40 in TSB containing 4% sodium chloride. Catheter (JMS Infusion set) pieces of 1-2 cm size were cut, slit into two halves and added to the culture. The cultures with catheter pieces were incubated at 37° C. with shaking at 100 rpm for 42 h. Post incubation, the catheters were removed and rinsed twice in PBS to remove the adhering planktonic cells. The biofilms on catheters were challenged with 8 μg/mL of P128 or 30 μg/mL of vancomycin by transferring the catheter pieces into tubes containing the drugs. The tubes were incubated at 37° C. under static conditions for 18 hrs. The catheters were then removed from the tubes, rinsed once in PBS, and immersed in 0.1% safranin [a dye that stains cell wall of bacteria] for 5 min. The stained catheters were washed once in PBS and allowed to dry. After drying, samples were fixed on aluminum stubs with double sided carbon adhesive tape, coated with 5-7 nm thickness gold using a sputter-coating system (Quorum Technologies; Q150T) and examined by SEM (Carl Zeiss. Neon 40) for the presence of biofilm structures.

SMILES	CFU/mL, generation of persisters ([1]; B9470, 0 h)	CFU/mL, confirmation of persisters (regrown, re-exposed) ([1]; B9470, 0 h)	CFU/mL, generation of persisters ([1]; B9470, 2 h)	CFU/mL, confirmation of persisters (regrown, re-exposed) ([1]; B9470, 2 h)	CFU/mL, generation of persisters ([1]; B9470, 4 h)	CFU/mL, confirmation of persisters (regrown, re-exposed) ([1]; B9470, 4 h)	CFU/mL, generation of persisters ([1]; B9470, 8 h)	CFU/mL, confirmation of persisters (regrown, re-exposed) ([1]; B9470, 8 h)	CFU/mL, generation of persisters ([1]; B9470, 24 h)	CFU/mL, confirmation of persisters (regrown, re-exposed) ([1]; B9470, 24 h)	CFU/mL, generation of persisters ([2]; B9377, 0 h)	CFU/mL, confirmation of persisters (regrown, re-exposed) ([2]; B9377, 0 h)	CFU/mL, generation of persisters ([2]; B9377, 4 h)	CFU/mL, confirmation of persisters (regrown, re-exposed) ([2]; B9377, 4 h)	CFU/mL, generation of persisters ([2]; B9377, 8 h)	CFU/mL, confirmation of persisters (regrown, re-exposed) ([2]; B9377, 8 h)	CFU/mL, generation of persisters ([2]; B9377, 24 h)	CFU/mL, confirmation of persisters (regrown, re-exposed) ([2]; B9377, 24 h)	CFU/mL, generation of persisters ([2]; BK18, 0 h)	CFU/mL, confirmation of persisters (regrown, re-exposed) ([2]; BK18, 0 h)	also measured
CCCCCCCCCC(=O)N[C@@H](Cc1c[nH]c2ccccc12)C(=O)N[C@H](CC(N)=O)C(=O)N[C@@H](CC(=O)O)C(=O)N[C@@H]1C(=O)NCC(=O)N[C@@H](CCCN)C(=O)N[C@@H](CC(=O)O)C(=O)N[C@H](C)C(=O)N[C@@H](CC(=O)O)C(=O)NCC(=O)N[C@H](CO)C(=O)N[C@@H]([C@H](C)CC(=O)O)C(=O)N[C@@H](CC(=O)c2ccccc2N)C(=O)O[C@@H]1C [Daptomycin, daptomycin]	3.2 × 10^7 CFU/mL	1 × 10^7 CFU/mL	1 × 10^7 CFU/mL	9 × 10^4 CFU/mL	2.3 × 10^6 CFU/mL	4 × 10^3 CFU/mL	5 × 10^5 CFU/mL	6 × 10^2 CFU/mL	3 × 10^6 CFU/mL	5 × 10^3 CFU/mL	2.5 × 10^8 CFU/mL	2.5 × 10^8 CFU/mL	4 × 10^3 CFU/mL	6 × 10^3 CFU/mL	1 × 10^3 CFU/mL	1 × 10^3 CFU/mL	5.5 × 10^3 CFU/mL	9 × 10^2 CFU/mL	2 × 10^8 CFU/mL	1 × 10^8 CFU/mL	CFU/mL, generation of persisters ([2]; BK18, 4 h): 3 × 10^3 CFU/mL; CFU/mL, confirmation of persisters (regrown, re-exposed) ([2]; BK18, 4 h): 3 × 10^2 CFU/mL; CFU/mL, generation of persisters ([2]; BK18, 8 h): 1 × 10^3 CFU/mL; CFU/mL, confirmation of persisters (regrown, re-exposed) ([2]; BK18, 8 h): 1 × 10^2 CFU/mL; CFU/mL, generation of persisters ([2]; BK18, 24 h): 5 × 10^3 CFU/mL; CFU/mL, confirmation of persisters (regrown, re-exposed) ([2]; BK18, 24 h): 6 × 10^2 CFU/mL; Drop in CFU at the end of 4 h treatment [2]: 5 log; MIC (S. epidermidis; ATCC12228, S. epidermidis ATCC 12228, read-out: MIC (drug alone)): 1 µg/mL; MIC (S. epidermidis; S. epidermidis B9467, read-out: MIC (drug alone)): 2 µg/mL; MIC (S. epidermidis; S. epidermidis B9468, read-out: MIC (drug alone)): 0.5 µg/mL; MIC (S. epidermidis; S. epidermidis B9471, read-out: MIC (drug alone)): 2 µg/mL; MIC (S. epidermidis; S. epidermidis B9472, read-out: MIC (drug alone)): 2 µg/mL; MIC (S. epidermidis; S. epidermidis strains of Tables 7 and 8, read-out: MIC over the strains): 0.5 to 2 µg/mL
CN[C@H](CC(C)C)C(=O)N[C@H]1C(=O)N[C@@H](CC(N)=O)C(=O)N[C@H]2C(=O)N[C@H]3C(=O)N[C@H](C(=O)N[C@H](C(=O)O)c4cc(O)cc(O)c4-c4cc3ccc4O)[C@H](O)c3ccc(c(Cl)c3)Oc3cc2cc(c3O[C@@H]2O[C@H](CO)[C@@H](O)[C@H](O)[C@H]2O[C@H]2C[C@](C)(N)[C@H](O)[C@H](C)O2)Oc2ccc(cc2Cl)[C@H]1O [Vancomycin, vancomycin]	3.2 × 10^7 CFU/mL	2 × 10^7 CFU/mL	1 × 10^6 CFU/mL	1 × 10^5 CFU/mL	3 × 10^5 CFU/mL	6 × 10^4 CFU/mL	9 × 10^3 CFU/mL	1.5 × 10^4 CFU/mL	3 × 10^4 CFU/mL	5 × 10^3 CFU/mL	2.5 × 10^8 CFU/mL	1.5 × 10^8 CFU/mL	8 × 10^6 CFU/mL	2 × 10^6 CFU/mL	1.9 × 10^6 CFU/mL	2 × 10^6 CFU/mL	1.1 × 10^5 CFU/mL	8 × 10^5 CFU/mL	2 × 10^8 CFU/mL	1 × 10^8 CFU/mL	CFU/mL, generation of persisters ([2]; BK18, 4 h): 1 × 10^7 CFU/mL; CFU/mL, confirmation of persisters (regrown, re-exposed) ([2]; BK18, 4 h): 2.5 × 10^5 CFU/mL; CFU/mL, generation of persisters ([2]; BK18, 8 h): 2 × 10^6 CFU/mL; CFU/mL, confirmation of persisters (regrown, re-exposed) ([2]; BK18, 8 h): 1 × 10^5 CFU/mL; CFU/mL, generation of persisters ([2]; BK18, 24 h): 4 × 10^5 CFU/mL; CFU/mL, confirmation of persisters (regrown, re-exposed) ([2]; BK18, 24 h): 1 × 10^5 CFU/mL; Drop in CFU at the end of 4 h treatment [2]: Approximately two log drop in CFU; Effect on catheter biofilm (safranin/SEM) [3]: minimal effect
